Test results as given in patent US20230263822A1, “MODULATION OF FACTOR 11 EXPRESSION” (Ionis Pharmaceuticals, Inc., priority 2008, published 2023).

Columns and labels:
Assay type in all cases: in vivo, BALB/c mice
blood coagulation [1] = test: PT and aPTT, combination with LOVENOX (Example 19)
Procedure: PT and aPTT were measured using PPP from mice treated with ISIS 404071 in combination with LOVENOX. In the first cohort, ISIS 404071 was administered subcutaneously to BALB/c mice at a dosage of 25 mg/kg twice a week for 3 weeks. Plasma was collected from these mice 5 days after receiving the last dose of ISIS 404071. In the second cohort, LOVENOX was administered subcutaneously to BALB/c mice at a dosage of 20 mg/kg once daily for three days. Plasma was collected from these mice 4 hours after receiving the last dose of LOVENOX. In the third cohort, ISIS 404071 was administered subcutaneously to BALB/c mice at a dosage of 20 mg/kg twice a week for 3 weeks, and 2 days after receiving the last dose of ISIS 404071, LOVENOX was administered subcutaneously at a dosage of 20 mg/kg once daily. Plasma was collected from these mice 4 hours after the last dose of LOVENOX. In a fourth cohort, PBS was administered subcutaneously twice a week for three weeks, as a control. Plasma was collected from these mice 5 days after the last dose.
PT and aPTT values provided in Table 31 are reported as International Normalized Ratio (INR) values. […] Also shown in Table 31, treatment with LOVENOX and treatment with ISIS 404071 combined with LOVENOX increase aPTT.

blood coagulation [2] = test: PT and aPTT, combination with Apixaban (Example 20)
Procedure: PT and aPTT were measured using PPP from mice treated with ISIS 404071 in combination with Apixaban. In the first cohort, ISIS 404071 was administered subcutaneously to BALB/c mice at a dosage of 25 mg/kg twice a week for 3 weeks. Plasma was collected from these mice 5 days after receiving the last dose of ISIS 404071. In the second cohort, Apixaban was administered subcutaneously to BALB/c mice at a dosage of 6 mg/kg twice daily for three days. Plasma was collected from these mice 20 minutes after receiving the last dose of Apixaban. In the third cohort, ISIS 404071 was administered subcutaneously to BALB/c mice at a dosage of 20 mg/kg twice a week for 3 weeks, and Apixaban was administered subcutaneously at a dosage of 6 mg/kg twice daily on the last three days of ISIS 404071 treatment. Plasma was collected from these mice 20 minutes after receiving the last dose of Apixaban. In a fourth cohort, PBS was administered subcutaneously twice a week for three weeks, as a control. Plasma was collected 5 days after the last dose of PBS.
PT and aPTT values provided in Table 32 are reported as International Normalized Ratio (INR) values. […] However, Apixaban and Apixaban combined with ISIS 404071 increased PT. Also shown in Table 32, Apixaban, ISIS 404071, and ISIS 404071 combined with Apixaban increase aPTT.

[3] = Collagenase-induced intracerebral hemorrhage model: hemorrhage volume, neurologic deficit score, mortality (Example 25)
Procedure: In a first cohort, ISIS 404071 was administered subcutaneously to BALB/c mice twice a week for two weeks at a dose 40 mg/kg. […] In a third cohort, ISIS 421208 ([…], 8 mismatches to murine Factor 11, incorporated herein as SEQ ID NO: 14) was administered subcutaneously to BALB/c mice twice a week for two weeks at a dose 40 mg/kg. In a fourth cohort, PBS was administered to BALB/c mice twice a week for two weeks.
Two days after receiving their final dose, all mice in all cohorts were anesthetized with […] of avertin. Next, the mice were injected at −1 mm AP, 1 mm R ML, −4 mm DV from bregma flat skull with a 10 μL Hamilton syringe containing 0.075 U collagenase (150 U/mL). Collagenase was delivered over 5 minutes and the needle was kept in place for an additional 5 minutes to prevent reflux. The mice were then analyzed for hemorrhagic size, neurologic deficit score, and mortality.
Table 37 presents the hemorrhage volume detected in mice after collagenase treatment, Table 38 presents the neurologic deficit score of the mice, and Table 39 presents the mortality rate of the mice. Neurological deficit is measured by a standard scoring system where no deficiency is zero and severe deficit is five.

platelet factor-4 (PF-4) = test: Thrombus formation by PF-4, FeCl3 induced VT model, combination with PLAVIX (Example 26); details: ISIS 404071 20 mg/kg, PLAVIX 0 mg/kg
Procedure: The combination of ISIS 404071 and PLAVIX was evaluated in the FeCl3 induced VT mouse model. Four groups of eight BALB/c mice, weighing approximately 25 g each, were treated with 6.25 mg/kg, 12.50 mg/kg, 25.00 mg/kg, or 50.00 mg/kg of PLAVIX. Mice were given two doses of PLAVIX on day one and one dose of PLAVIX on day two, two hours before surgery.
After the last dose of ISIS 404071, mice were treated with 6.25 mg/kg, 12.50 mg/kg, 25.00 mg/kg, or 50.00 mg/kg of PLAVIX. Two doses of PLAVIX were administered to the mice on day one and one dose of PLAVIX was administered on day two, two hours before surgery.
Two control groups of eight BALB/c mice, weighing approximately 25 g each, were not treated with ISIS 404071 or PLAVIX. […] Thrombus formation was induced with FeCl3 in all of the mice except the first […] control groups. All mice were anesthetized with 150 mg/kg of ketamine mixed with 10 mg/kg of xylazine administered by intraperitoneal injection.
After 3 minutes of exposure, the filter paper was removed. Thirty minutes after the filter paper application, a fixed length of the vein containing the thrombus was dissected out for platelet analysis.
Real-time PCR quantification of PF-4 was used to quantify platelets in the vena cava as a measure of thrombus formation. […] Therefore, the combination of anti-platelet therapy with Factor 11 ASO increases antithrombotic activity. Data is presented as percent of PF-4 mRNA as compared to the PBS+ FeCl3 control.

[4] = ISIS 404071 alone 25 mg/kg s.c. twice a week for 3 weeks, LOVENOX alone 20 mg/kg s.c. once daily for three days, combination 20 mg/kg + 20 mg/kg
[5] = BALB/c mice, ISIS 404071 25 or 20 mg/kg, Apixaban 6 mg/kg twice daily
[6] = ISIS 404071 alone 25 mg/kg s.c. twice a week for 3 weeks, Apixaban alone 6 mg/kg s.c. twice daily for three days, combination 20 mg/kg + 6 mg/kg
[7] = collagenase-induced intracerebral hemorrhage, 40 mg/kg twice a week for two weeks

With “ISIS 404071: antisense oligonucleotide targeted to murine Factor 11 mRNA, TGGTAATCCACTTTCAGAGG, target start site 869 (chemistry not given here)” the “PT” value (blood coagulation [1]; BALB/c mice, ISIS 404071 25 or 20 mg/kg, LOVENOX 20 mg/kg) was “not significantly affected”, the “PT INR” value (blood coagulation [1]; [4]) was 0.95 INR and the “aPTT INR” value (blood coagulation [1]; [4]) was 1.31 INR. For the same substance, the “PT” value (blood coagulation [2]; [5]) was “not significantly affected”, the “aPTT” value (blood coagulation [2]; [5]) was “increase aPTT” and the “PT INR” value (blood coagulation [2]; [6]) was 0.95 INR. The “aPTT INR” value (blood coagulation [2]; [6]) was 1.31 INR, the “Hemorrhagic volume after collagenase treatment” value ([3]; 40 mg/kg s.c. twice a week for two weeks) was 38 mm^3 and the “Neurologic Deficit Score after collagenase treatment” value ([3]; 40 mg/kg s.c. twice a week for two weeks, score zero (no deficiency) to five (severe deficit)) was 3.8. The “% mortality after collagenase treatment” value ([3]; ISIS oligonucleotides 40 mg/kg s.c., warfarin 2 mg/kg intraperitoneally, twice a week for two weeks) was 20%, the “hemorrhagic size” value [3, 7] was “did not have a significant effect” and the “mortality” value [3, 7] was “did not have a significant effect”. The “neurologic deficit score” value [3, 7] was “did not have a significant effect”, the “PF-4 mRNA, percent as compared to the PBS + FeCl3 control (thrombus formation)” value (platelet factor-4 (PF-4); + FeCl3) was 40% and the “PF-4 mRNA, percent as compared to the PBS + FeCl3 control (thrombus formation)” value (platelet factor-4 (PF-4); − FeCl3) was 27%.
